Our source for the IC50 values is patent publication US20160108039A1, “TRIAZOLOPYRIDINES AS THROMBIN INHIBITORS FOR THE TREATMENT OF THROMBOEMBOLIC DISEASES” (BAYER PHARMA AKTIENGESELLSCHAFT, priority 2013, published 2016).

Assay [1] deals with T1, thrombin (Homo sapiens, UniProt P00734). The assay can be described thus: Measurement of the thrombin inhibition in buffer. In kind it is biochemical. The conditions noted are these: human thrombin 0.06 nmol/l in Tris buffer pH 7.4, 22° C., substrate Boc-Asp(OBzl)-Pro-Arg-AMC; in some cases means of individual determinations. Summed up: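 Compound pre-incubated 15 min at 22° C with 0.06 nmol/l human thrombin in 50 mmol/l Tris, 100 mmol/l NaCl, 0.1% BSA, pH 7.4, then 5 μmol/l Boc-Asp(OBzl)-Pro-Arg-AMC added for 30 min. AMC fluorescence read at 360/460 nm against DMSO controls; IC50 from concentration–activity curves.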

Assay [2] has as its target T1, thrombin. Nature of the assay: Thrombin-inhibitory activity in plasma samples (ecarin-activated). In kind it is biochemical. Particulars: citrate plasma, ecarin activation, fluorogenic thrombin substrate; read at about 70% of maximum signal (about 12 min); in some cases means. The method, boiled down: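 Citrate plasma prothrombin activated by ecarin (20 mU per reaction) in Ca2+-containing Hepes buffer with compound; unstimulated controls lacked ecarin. Thrombin activity followed with fluorogenic substrate (50 μmol/l final), ex 360/em 465 nm, read every minute over 20 minutes.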

Each structure is given as a SMILES string.

Regarding `COCC1COC(C)(CCO)CN1C(=O)c1cc(OC)c2nc(NCc3cccc(Cl)c3)nn2c1` (centres unmarked) [Example 71, {2-[(3-Chlorobenzyl)amino]-8-methoxy[1,2,4]triazolo[1,5-a]pyridin-6-yl}[2-(2-hydroxyethyl)-5-(methoxymethyl)-2-methylmorpholin-4-yl]methanone], the results for the IC50 on thrombin [1] and against thrombin [2] were 35 nM and 87 nM, respectively.
